Read-outs that look alike come from different tables or passages of the source.
What was measured:
[1] = tested on: BV-2 (mouse microglial cells); test: Cytotoxicity, PrestoBlue cell viability assay in BV-2 cells; type: cell-based; settings: for effect on cell viability in BV-2 cells (in words): 0.1, 1, 10, 50, and 100 µM
Experimental: (§1) We assessed their cytotoxic effects at five concentrations (0.1, 1, 10, 50, and 100 µM) in HT-22 (mouse hippocampal neuronal cells) and BV-2 (mouse microglial cells) cell lines using a fluorometric assay with PrestoBlue™ cell viability reagent (Table 4, Table S2 in the SI).
(§2) Mouse microglial cells (BV-2) were a generous gift from Professor Bozena Kaminska-Kaczmarek of the Laboratory of Molecular Neurobiology, Neurobiology Center, Nencki Institute of Experimental Biology, Polish Academy of Sciences, Warsaw, Poland. Cells were cultured in Dulbecco’s modified Eagle’s Medium-high glucose (DMEM, Glutamx Thermo Fisher, Waltham, MA, USA) supplemented with 10% inactivated fetal bovine serum (Thermo Fisher), 100 IU/mL penicillin (Merck), and 100 µg/mL streptomycin (Merck). Cells were cultured in flasks (area 175 cm^2, Nunc) and incubated at 37 °C, 5% CO2. To evaluate the level of NO, IL-6, and TNF-α and the effectiveness of the compounds tested, BV-2 microglia cells were cultured in 96-well culture plates (5 × 10^4 cells per well, Falcon). For the measurement of cell viability and cell membrane damage, cells were placed in 96-well culture plates (2 × 10^4 cells per well, Falcon). Before the tests, cells were grown for 24 h in the incubator (37 °C, 5% CO2). Mouse Hippocampal Neuronal Cell Line (HT-22) was a generous gift from Dr Bartosz Pomierny of the Department of Biochemical Toxicology, Jagiellonian University Medical College, Krakow, Poland. Cells were cultured in Dulbecco’s modified Eagle’s Medium-high glucose (DMEM, Glutamx Thermo Fisher) supplemented with 10% inactivated fetal bovine serum (Thermo Fisher), 100 IU/mL penicillin (Merck), and 100 µg/mL streptomycin (Merck). Cells were cultured in flasks (area 175 cm^2, Nunc) and incubated at 37 °C, 5% CO2. For the measurement of cell viability and neuroprotective effects against okadaic acid, cells were placed in 96-well culture plates (2 × 10^4 cells per well, Falcon). Before the tests, cells were grown for 24 h in the incubator (37 °C, 5% CO2).
(§3) Cell viability was evaluated using the PrestoBlue reagent (Thermo Fisher), according to the manufacturer’s procedures. Following 24 h of incubation with the tested molecule, PrestoBlue reagent was added to a microplate well in an amount equal to one-tenth of the remaining medium volume. The resulting mixture was incubated for 15 min at 37 °C, and the fluorescence intensity (EX 530; EM 580 nm) was measured using the plate reader POLARstar Omega, (BMG Labtech, Ortenberg, Germany). The results (viability values) are provided as a percentage of live cells with respect to DMSO (control sample).
(§4) Cytotoxic effects of selected inhibitors in HT-22 mouse hippocampal neuronal cells and BV-2 mouse microglial cells
(§5) Table S2. Cytotoxic effects of selected inhibitors in HT-22 mouse hippocampal neuronal cells and BV-2 mouse microglial cells. neurotoxicity in HT-22 cellsa immunotoxicity in BV-2 cellsa […]
(§6) a % of cell viability at the given concentration of tested compound; mean value ± standard deviation (SD) of triplicates; b half maximal inhibitory concentration of the tested compound; mean value ± standard error of the mean (SEM) of triplicates; c data obtained in log C of 39 of -8.5; -7.5; -6.5; -5.5; -5, respectively; d data obtained in log C of 49 of -7.5; -6.5; -5.5; -4.5; -4. respectively; nt, not tested.

[2] = as above; type: cell-based, mouse; settings: mouse, BV-2 microglial cells; for IC50 at 24 h: PrestoBlue, mean ± SEM, read-out: Cytotoxicity in BV-2 Cells (IC50 x¯ ± SEM µM); for viability at 24 h, 1 µM: 1 µM (log C -6); for viability at 24 h, 50 µM: 50 µM (log C -4.3); for viability at 24 h, 100 µM: 100 µM (log C -4)
Experimental: as §1, §2, §3, §4, §5, §6

GSK-3β = GSK-3β (Homo sapiens, UniProt P49841); test: ADP-Glo kinase assay, GSK-3β inhibition; type: biochemical; parameters: purchased Promega; settings: for IC50: mean ± SEM, ATP 25 µM
Excerpt: We evaluated the inhibitory activity of the final compounds against GSK-3β, IKK-β, and ROCK-1 kinases using the commercially available ADP-Glo™ kinase assay. The method was based on the measurement of luminescence that correlates with kinase activity. […] The latter are inhibitors of the kinases of interest and were integral to the design of our studies.
Promega’s Kinase Enzyme Systems (Promega; Madison, WI, USA) were used to determine the activities of the tested compounds against the human recombinant kinases GSK-3β, IKK- β, and ROCK-1. The assays were performed according to the provided manufacturer’s instruction, based on the optimized conditions of the enzymatic reactions, using the low-volume, white polystyrene, 384-well plates. The ADP-Glo™ Assay (Promega; Madison, WI, USA) was used for bioluminescent detection of the kinase activity. Stock solutions of the tested compounds in DMSO (1mM) were diluted with the Kinase Assay Buffer before use (40 mM Tris, pH 7.5, enriched with 50 µM dithiothreitol; DTT), giving the final desired concentrations. The kinase enzymes, substrates, and ATP solutions were also diluted with the assay buffer prior to use. The GSK-3β, IKK-β, and ROCK-1 substrates were derived from human muscle glycogen synthase 1, human IkBA, and human 40S ribosomal protein S6, respectively. The assay procedure was as follows: At first, the appropriate kinase enzyme (GSK-3β: 10 ng per well; IKK-β: 45 ng per well; ROCK-1: 24 ng per well) was incubated with the tested sample (10 µM in well) for 5 min. The DMSO solution (1% in well) was used in the blank samples instead of the tested inhibitors. After the incubation period, ATP (25 µM per well in the case of GSK-3β and IKK-β kinases; 5 µM per well in the case of ROCK-1 kinase) and an appropriate enzyme substrate (0.2 µg/µL in well) were added to start the enzymatic reaction. The reaction mixture was kept at room temperature for 1 h; then, the ADP-Glo™ reagent was added, to terminate the kinase reaction and deplete any remaining ATP. After 40 min, a second reagent (Kinase Detection Reagent) was applied to convert the obtained ADP to ATP and to generate light from the newly synthesized ATP using a luciferase/luciferin reaction. The mixture was incubated for another 30 min at room temperature before the luminescence was measured. The calculations of the percent of kinases’ inhibition by tested compounds were based on the equation 100 − (S/B) × 100; S and B are the enzyme activities with and without the tested sample, respectively. […] Each compound was evaluated in two independent experiments, with every data point collected in duplicate.

[3] = 24 h, read-out: immunotoxicity in BV-2 cells, % of cell viability
[4] = 10 µM (log C -5), 24 h, read-out: immunotoxicity in BV-2 cells, % of cell viability

GSK-3β, sequence (P49841 whole entry): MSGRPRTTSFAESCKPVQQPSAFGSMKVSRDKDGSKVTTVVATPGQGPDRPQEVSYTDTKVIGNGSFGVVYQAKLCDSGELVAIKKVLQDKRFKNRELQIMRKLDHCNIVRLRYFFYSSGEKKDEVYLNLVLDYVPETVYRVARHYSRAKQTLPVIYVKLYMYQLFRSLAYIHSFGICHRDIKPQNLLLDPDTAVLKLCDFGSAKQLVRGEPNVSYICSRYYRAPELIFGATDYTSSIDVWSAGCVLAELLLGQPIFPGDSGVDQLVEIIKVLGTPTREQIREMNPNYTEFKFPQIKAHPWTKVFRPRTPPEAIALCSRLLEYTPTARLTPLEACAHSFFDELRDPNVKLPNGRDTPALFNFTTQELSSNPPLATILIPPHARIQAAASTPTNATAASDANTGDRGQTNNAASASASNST

| Compound | effect on cell viability in BV-2 cells (in words) [1] | viability at 24 h, 10 µM ([2]; log C -5 (footnote c; printed in column 100 µM), read-out: immunotoxicity in BV-2 cells, % of cell viability) | viability at 24 h, 3.16 µM ([2]; log C -5.5 (footnote c; printed in column 50 µM), read-out: immunotoxicity in BV-2 cells, % of cell viability) | viability at 24 h, 0.316 µM ([2]; log C -6.5 (footnote c; printed in column 10 µM), read-out: immunotoxicity in BV-2 cells, % of cell viability) | IC50 at 24 h ([2]; 24 h) | IC50 (GSK-3β) | viability at 24 h, 1 µM [2, 3] | viability at 24 h, 10 µM [2, 4] | viability at 24 h, 50 µM [2, 3] | viability at 24 h, 100 µM [2, 3] | viability at 24 h, 0.1 µM [2, 3] | effect on viability of BV-2 cells at concentrations up to 10 µM (in words) [1] | inhibition at 10 µM (GSK-3β; 10 µM, mean ± SD, read-out: % inh. at 10 µM GSK-3β) |
| --- | --- | --- | --- | --- | --- | --- | --- | --- | --- | --- | --- | --- | --- |
| CC(C)C(=O)Nc1cc(-c2cc3c(s2)C(=O)NC(C)(C)N3)ccn1 [Compound 39, N-(4-(2,2-Dimethyl-4-oxo-1,2,3,4-tetrahydrothieno [3,2-d]pyrimidin-6-yl)pyridin-2-yl)isobutyramide] | decreased cells’ viability | 14% | 73% | 105% | 4.5 ± 1.9 µM | 12 nM |  |  |  |  |  |  |  |
| CC1(C)NC(=O)c2sc(-c3ccnc(NC(=O)C4CC4)c3)cc2N1 [Compound 40, N-(4-(2,2-Dimethyl-4-oxo-1,2,3,4-tetrahydrothieno [3,2-d]pyrimidin-6-yl)pyridin-2-yl)-cyclopropanecarboxamide] | decreased cells’ viability |  |  |  | 3.6 ± 0.7 µM | 10 nM | 109% | 9% | 2% | 2% | 106% |  |  |
| CC1(C)NC(=O)c2sc(-c3ccnc(NC(=O)C4CCC4)c3)cc2N1 [Compound 41, N-(4-(2,2-Dimethyl-4-oxo-1,2,3,4-tetrahydrothieno [3,2-d]pyrimidin-6-yl)pyridin-2-yl)-cyclobutanecarboxamide] | decreased cells’ viability |  |  |  |  | 32 ± 1 nM |  |  |  |  |  |  |  |
| CC(C)C(=O)Nc1cc(-c2cc(NC(N)=O)c(C(N)=O)s2)ccn1 [Compound 48, 5-(2-Isobutyramidopyridin-4-yl)-3-ureidothiophene-2-carboxamide] | decreased cells’ viability |  |  |  | 21.8 ± 3.8 µM | 22 nM | 97% | 66% | 20% |  | 103% |  |  |
| NC(=O)Nc1cc(-c2ccnc(NC(=O)C3CC3)c2)sc1C(N)=O [Compound 49, 5-(2-(Cyclopropanecarboxamido)pyridin-4-yl)-3-ureidothiophene-2-carboxamide] | no significant decrease in cell viability |  |  |  | > 100 µM | 20 nM |  |  |  | 74% |  | did not decrease the viability of the cells |  |
| NC(=O)Nc1cc(-c2ccnc(NC(=O)C3CCC3)c2)sc1C(N)=O [Compound 50, 5-(2-(Cyclobutanecarboxamido)pyridin-4-yl)-3-ureidothiophene-2-carboxamide] | no significant decrease in cell viability |  |  |  | > 100 µM | 34 nM | 107% | 114% | 96% | 50% | 101% |  |  |
| NC(=O)Nc1cc(-c2cccc(NC(=O)C3CC3)c2)sc1C(N)=O [Compound 58, 5-(3-(Cyclopropanecarboxamido)phenyl)-3-ureidothiophene-2-carboxamide] | decreased cells’ viability |  |  |  | 51.4 ± 0.8 µM |  | 107% | 97% | 52% | 13% | 106% | did not decrease the viability of the cells | 36% |
| O=C1NC2(CCCC2)Nc2cc(-c3ccnc(NC(=O)C4CC4)c3)sc21 [Compound 60, N-(4-(4’-Oxo-3’,4’-dihydro-1’H-spiro[cyclopentane-1,2’-thieno [3,2-d]pyrimidin]-6’-yl)pyridin-2-yl)cyclopropanecarboxamide] | decreased cells’ viability |  |  |  | 3 µM | 10 nM | 101% | 9% | 3% | 3% | 108% |  |  |
| O=C1NC2(CCOC2)Nc2cc(-c3ccnc(NC(=O)C4CC4)c3)sc21 (stereo not shown) [Compound 62, N-(4-(4′-Oxo-3′,4,4′,5-tetrahydro-1′H,2H-spiro[furan-3,2′-thieno [3,2-d]pyrimidin]-6′-yl)pyridin-2-yl)cyclopropanecarboxamide] | decreased cells’ viability |  |  |  | 54.8 ± 1.9 µM | 8 nM | 106% | 105% | 5% | 2% | 105% | did not decrease the viability of the cells |  |
| COc1nc(-c2ccnc(NC(=O)C3CC3)c2)sc1C(N)=O [II, reference compound] | decreased cells’ viability |  |  |  | 15.4 ± 0.6 µM | 5 nM | 102% | 60% | 27% | 4% | 97% |  |  |
